PubChem BioAssay (NCI)
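These data come from cells grown in 96-well plates and exposed to compound for 48 hours at five concentrations. GI50 marks 50% less growth. TGI marks complete inhibition of growth.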

How the values were obtained:
Assay in all cases: growth of human tumour cells (NCI), 48 h
[1] = system: HCC-2998 colon
[2] = system: NCI-H460 lung
[3] = system: TK-10 renal
[4] = system: MDA-MB-435
[5] = system: U251 CNS
[6] = system: SR leukemia
[7] = system: NCI-H522 lung
[8] = system: SF-295 CNS
[9] = system: EKVX NSCLC
[10] = system: RXF 393 renal
[11] = system: NCI/ADR-RES ovarian
[12] = system: SF-539 CNS
[13] = system: SK-MEL-28 melanoma
[14] = system: HT29 colon
[15] = system: NCI-H226 lung
[16] = system: HS 578T breast
[17] = system: A498 renal
[18] = system: IGROV1 ovarian
[19] = system: ACHN renal
[20] = system: SNB-75 CNS
[21] = system: HCT-15 colon
[22] = system: OVCAR-5 ovarian
[23] = system: 786-0 renal
[24] = system: SN12C renal
[25] = system: UACC-62 melanoma
[26] = system: A549 NSCLC
[27] = system: HL-60(TB) leukemia
[28] = system: CAKI-1 renal
[29] = system: MCF7 breast
[30] = system: MOLT-4 leukemia
[31] = system: COLO 205 colon
[32] = system: SNB-19 CNS
[33] = system: SK-OV-3 ovarian
[34] = system: HCT-116 colon
[35] = system: M14 melanoma
[36] = system: HOP-62 NSCLC
[37] = system: OVCAR-4 ovarian
[38] = system: RPMI-8226 leukemia
[39] = system: UACC-257 melanoma
[40] = system: SW-620 colon
[41] = system: KM12 colon
[42] = system: UO-31 renal
[43] = system: LOX IMVI melanoma
[44] = system: SK-MEL-5 melanoma
[45] = system: T-47D breast
[46] = system: CCRF-CEM leukemia
[47] = system: BT-549 breast
[48] = system: DU-145 prostate
[49] = system: NCI-H23 lung
[50] = system: OVCAR-8 ovarian
[51] = system: K-562 leukemia
[52] = system: PC-3 prostate
[53] = system: MDA-MB-231 breast
[54] = system: MALME-3M melanoma
[55] = system: SK-MEL-2 melanoma
[56] = system: SF-268 CNS
[57] = system: HOP-92 NSCLC
[58] = system: OVCAR-3 ovarian

## O=C(NCc1ncc[nH]1)c1ccc(-c2nc3ccc4[nH]ncc4c3c3c2CCCC3)cc1
[1]
  GI50: 1.94 µM
  TGI: 8.73 µM
[2]
  GI50: 1.94 µM
  TGI: 7.83 µM
[3]
  GI50: 1.66 µM
  TGI: > 50 µM
[4]
  GI50: 1.66 µM
  TGI: 7.05 µM
[5]
  GI50: 1.68 µM
  TGI: 11.6 µM
[6]
  GI50: 0.549 µM
  TGI: 27.7 µM
[7]
  GI50: 0.869 µM
  TGI: 2.85 µM
[8]
  GI50: 3 µM
  TGI: 14.9 µM
[9]
  GI50: 2.86 µM
  TGI: 24.2 µM
[10]
  GI50: 0.603 µM
  TGI: 2.76 µM
[11]
  GI50: > 50 µM
  TGI: > 50 µM
[12]
  GI50: 1.21 µM
  TGI: 5.85 µM
[13]
  GI50: 1.19 µM
  TGI: 4.6 µM
[14]
  GI50: 2.66 µM
  TGI: > 50 µM
[15]
  GI50: 1.4 µM
  TGI: 17.3 µM
[16]
  GI50: 1.25 µM
  TGI: 7.65 µM
[17]
  GI50: 0.958 µM
  TGI: 4.38 µM
[18]
  GI50: 0.818 µM
  TGI: 7.64 µM
[19]
  GI50: 1.6 µM
  TGI: > 50 µM
[20]
  GI50: 1.61 µM
  TGI: 5.2 µM
[21]
  GI50: 6.28 µM
  TGI: > 50 µM
[22]
  GI50: 9.18 µM
  TGI: > 50 µM
[23]
  GI50: 1.97 µM
  TGI: 12.1 µM
[24]
  GI50: 1.69 µM
  TGI: 10.6 µM
[25]
  GI50: 1.38 µM
  TGI: 6.47 µM
[26]
  GI50: 8.04 µM
  TGI: > 50 µM
[27]
  GI50: 1.64 µM
  TGI: 8.98 µM
[28]
  GI50: 1.08 µM
  TGI: 4.8 µM
[29]
  GI50: 1.17 µM
  TGI: 6.76 µM
[30]
  GI50: 1.51 µM
  TGI: 16.8 µM
[31]
  GI50: 1.12 µM
  TGI: 3.44 µM
[32]
  GI50: 1.85 µM
  TGI: 38.1 µM
[33]
  GI50: 0.707 µM
  TGI: 3.3 µM
[34]
  GI50: 0.58 µM
  TGI: > 50 µM
[35]
  GI50: 1.43 µM
  TGI: 7.44 µM
[36]
  GI50: 1.5 µM
  TGI: 9.57 µM
[37]
  GI50: 3.19 µM
  TGI: 19.7 µM
[38]
  GI50: 6.15 µM
  TGI: 23.4 µM
[39]
  GI50: 3.61 µM
  TGI: 18.8 µM
[40]
  GI50: 1.36 µM
  TGI: > 50 µM
[41]
  GI50: 1.61 µM
  TGI: 9.87 µM
[42]
  GI50: 7.57 µM
  TGI: 22.6 µM
[43]
  GI50: 1.46 µM
  TGI: 6.73 µM
[44]
  GI50: 1.93 µM
  TGI: 7.51 µM
[45]
  GI50: 1.18 µM
  TGI: 6.13 µM
[46]
  GI50: 1.29 µM
  TGI: > 50 µM
[47]
  GI50: 0.957 µM
  TGI: 5.48 µM
[48]
  GI50: 2.17 µM
  TGI: > 50 µM
[49]
  GI50: 1.82 µM
  TGI: 8.21 µM
[50]
  GI50: 1.81 µM
  TGI: 17.3 µM
[51]
  GI50: 2.02 µM
  TGI: > 50 µM
[52]
  GI50: 1.81 µM
  TGI: 32 µM
[53]
  GI50: 1.84 µM
  TGI: 10.9 µM
[54]
  GI50: 1.31 µM
  TGI: 3.67 µM
[55]
  GI50: 1.1 µM
  TGI: 2.87 µM
[56]
  GI50: 1.33 µM
  TGI: 8.88 µM

## Cc1ccccc1NC(=O)Nc1nc2ccc([N+](=O)[O-])cc2s1
[1]
  GI50: 2.29 µM
  TGI: 5.38 µM
[2]
  GI50: 2.31 µM
  TGI: 6.24 µM
[3]
  GI50: 2.9 µM
  TGI: 7.11 µM
[4]
  GI50: 2.1 µM
  TGI: 5.71 µM
[5]
  GI50: 1.77 µM
  TGI: 3.67 µM
[6]
  GI50: 1.73 µM
  TGI: 4.11 µM
[7]
  GI50: 1.47 µM
  TGI: 4.24 µM
[8]
  GI50: 1.72 µM
  TGI: 3.61 µM
[9]
  GI50: 2.16 µM
  TGI: 6.01 µM
[10]
  GI50: 1.89 µM
  TGI: 4.29 µM
[11]
  GI50: 2.12 µM
  TGI: 5.03 µM
[12]
  GI50: 2.03 µM
  TGI: 4.43 µM
[13]
  GI50: 2.26 µM
  TGI: 6.29 µM
[14]
  GI50: 2.03 µM
  TGI: 4.96 µM
[15]
  GI50: 2.29 µM
  TGI: 6.21 µM
[16]
  GI50: 2.4 µM
  TGI: 6.64 µM
[17]
  GI50: 1.89 µM
  TGI: 4.41 µM
[18]
  GI50: 3.38 µM
  TGI: 13.4 µM
[19]
  GI50: 1.88 µM
  TGI: 4.53 µM
[20]
  GI50: 1.77 µM
  TGI: 4.78 µM
[21]
  GI50: 2.12 µM
  TGI: 5.48 µM
[22]
  GI50: 2.98 µM
  TGI: 11.3 µM
[23]
  GI50: 2.7 µM
  TGI: 8.41 µM
[24]
  GI50: 2.38 µM
  TGI: 7.12 µM
[25]
  GI50: 2.46 µM
  TGI: 10.6 µM
[26]
  GI50: 2.17 µM
  TGI: 5.8 µM
[57]
  GI50: 1.59 µM
  TGI: 4.19 µM
[27]
  GI50: 1.79 µM
  TGI: 3.87 µM
[28]
  GI50: 1.68 µM
  TGI: 4.02 µM
[29]
  GI50: 2.36 µM
  TGI: 6.69 µM
[30]
  GI50: 1.76 µM
  TGI: 4.02 µM
[31]
  GI50: 1.61 µM
  TGI: 3.16 µM
[32]
  GI50: 2.72 µM
  TGI: 7.77 µM
[33]
  GI50: 2.05 µM
  TGI: 5.43 µM
[34]
  GI50: 2.24 µM
  TGI: 5.21 µM
[35]
  GI50: 2.42 µM
  TGI: 5.85 µM
[36]
  GI50: 2.49 µM
  TGI: 7.01 µM
[58]
  GI50: 1.84 µM
  TGI: 4.33 µM
[37]
  GI50: 2.65 µM
  TGI: 9.13 µM
[38]
  GI50: 1.43 µM
  TGI: 3.76 µM
[39]
  GI50: 1.89 µM
  TGI: 5.12 µM
[40]
  GI50: 2.54 µM
  TGI: 7.86 µM
[41]
  GI50: 2.49 µM
  TGI: 8.57 µM
[42]
  GI50: 2.02 µM
  TGI: 6.33 µM
[43]
  GI50: 1.83 µM
  TGI: 3.53 µM
[44]
  GI50: 1.59 µM
  TGI: 3.19 µM
[45]
  GI50: 2.22 µM
  TGI: 6.28 µM
[46]
  GI50: 1.76 µM
  TGI: 5.28 µM
[47]
  GI50: 2.18 µM
  TGI: 4.53 µM
[48]
  GI50: 3.23 µM
  TGI: 11.2 µM
[49]
  GI50: 1.79 µM
  TGI: 4.7 µM
[50]
  GI50: 2.81 µM
  TGI: 9.9 µM
[51]
  GI50: 1.53 µM
  TGI: 4.76 µM
[52]
  GI50: 1.78 µM
  TGI: 4.23 µM
[53]
  GI50: 2.74 µM
  TGI: 8.94 µM
[54]
  GI50: 2.1 µM
  TGI: 4.99 µM
[55]
  GI50: 1.98 µM
  TGI: 4.49 µM
[56]
  GI50: 3.06 µM
  TGI: 9.95 µM
